Source: patent US10316017B2, “COT modulators and methods of use thereof” (Gilead Sciences, Inc., priority 2015, dated 2019)

system: TNFα production in LPS-stimulated human monocytes; assay: Cot Monocyte TNFα Cell Based Assay; settings: Homo sapiens, Monocyte, LPS-stimulated human monocytes, TNFα TR-FRET; read-out: EC50 TNF
Procedure: Example 60: Cot Monocyte TNFα Cell Based Assay
The cell suspension was then plated at a density of 5,000 cells/well onto black 384 well Greiner clear bottom plates. Plates were pre-spotted with test compounds and serially diluted in DMSO where 200 nL/well were delivered using the Echo 550 acoustic liquid dispenser (Labcyte®) for a final DMSO concentration of 0.5%. Plated cells were treated with compound for 1 hour at 37° C. Cells were then stimulated with 50 pg/ml of LPS (Sigma) excluding outside columns of plate used for unstimulated cell control wells. Cells were incubated for an additional 4 hours at 37° C. Cells were then spun out of the media and 5 ul of sample were taken and analyzed for total TNFα content using the TR-FRET Human TNFα detection system (CisBio). This system utilizes two labeled antibodies (cryptate and XL665) that bind to two different epitopes of the TNFα molecule and produce FRET signal proportional to the concentration of TNFα in the sample. Detection antibodies are mixed 50:50 and 5 μL were dispensed into each well. Plates were covered with clear seals and incubated at room temp overnight. […] Percent of control was calculated as follows: % Control=100×(RatioSample−Ratio0% stimulation)/(Ratio100% Stimulation−Ratio0% Stimulation) where unstimulated cells (0% stimulation) were the negative control and stimulated cells (100% stimulation) were used as the positive control.

EC50 [nM] | Compound
505 | [2H][C@](Nc1cc(Cl)c2ncc(C#N)c(N[C@H](CCS(C)(=O)=O)c3ccccc3)c2c1)(c1ccc(F)cc1)c1cn(C2CC2)nn1 [Example 932, 8-chloro-6-(((1-cyclopropyl-1H-1,2,3-triazol-4-yl)(4-fluorophenyl)methyl-d)amino)-4-(((R)-3-(methylsulfonyl)-1-phenylpropyl)amino)quinoline-3-carbonitrile]
314 | CC(C)(C)CNc1c(C#N)cnc2c(Cl)cc(N[C@@H](c3ccccc3)c3cn(C4(C(F)F)CC4)nn3)cc12 [Example 1058, (S)-8-chloro-6-(((1-(1-(difluoromethyl)cyclopropyl)-1H-1,2,3-triazo1-4-yl)(phenyl)methyl)amino)-4-(neopentylamino)quinoline-3-carbonitrile]
188 | Cc1cc(C#N)ccc1[C@H](Nc1cc(Cl)c2ncc(C#N)c(NCC(C)(C)C)c2c1)c1cn(C2(C(F)(F)F)CC2)nn1 [Example 1099, (S)-8-chloro-6-(((4-cyano-2-methylphenyl)(1-(1-(trifluoromethyl)cyclopropyl)-1H-1,2,3-triazol-4-yl)methyl)amino)-4-(neopentylamino)quinoline-3-carbonitrile]

same assay, conditions: Homo sapiens, Monocyte, TNFα in LPS-stimulated human monocytes; read-out: EC50 TNF

EC50 [nM] | Compound
377 | [2H]C(Nc1cc(Cl)c2ncc(C#N)c(NC3[C@H]4CCC[C@@H]34)c2c1)(c1ccc(F)cc1)c1cn(C2CC2)nn1 (stereo in doubt) [Example 117, 4-(((1R,5S)-bicyclo[3.1.0]hexan-6-yl)amino)-8-chloro-6-(((S)-(1-cyclopropyl-1H-1,2,3-triazol-4-yl) (4-fluorophenyl)methyl-d)amino)quinoline-3-carbonitrile]
> 10000 | [2H]C(Nc1cc(Cl)c2ncc(C#N)c(N[C@@H]3CCCC[C@@H]3N)c2c1)(c1ccc(F)cc1)c1cn(C2CC2)nn1 (stereo in doubt) [Example 228, 4-(((1R,2S)-2-aminocyclohexyl)amino)-8-chloro-6-(((S)-(1-cyclopropyl-1H-1,2,3-triazol-4-yl)(4-fluorophenyl)methyl-d)amino)quinoline-3-carbonitrile]
> 10000 | [2H]C(Nc1cc(Cl)c2ncc(C#N)c(N[C@H]3CCCC[C@H]3NC(=O)OC(C)(C)C)c2c1)(c1ccc(F)cc1)c1cn(C2CC2)nn1 (stereo in doubt) [Example 231, tert-butyl ((1R,2S)-2-((8-chloro-3-cyano-6-(((S)-(1-cyclopropyl-1H-1,2,3-triazol-4-yl)(4-fluorophenyl)methyl-d)amino)quinolin-4-yl)amino)cyclohexyl)carbamate]
1260 | CC(C)n1cc([C@@H](Nc2cc(Cl)c3ncc(C#N)c(Nc4ccc(F)c(Cl)c4)c3c2)c2cccc(COCCN(C)C)c2)nn1 [Compound 40]
504 | [2H][C@](Nc1cc(Cl)c2ncc(C#N)c(NCC3(CC)CCC3)c2c1)(c1ccc(F)cc1)c1cn(C2CC2)nn1 [Example 261, (S)-8-chloro-6-(((1-cyclopropyl-1H-1,2,3-triazol-4-yl)(4-fluorophenyl)methyl-d)amino)-4-(((1-ethylcyclobutyl)methyl)amino)quinoline-3-carbonitrile]
426 | [2H][C@](Nc1cc(Cl)c2ncc(C#N)c(NCC3(C)CCOCC3)c2c1)(c1ccc(F)cc1)c1cn(-c2cccnc2)nn1 [Example 332, (S)-8-chloro-6-(((4-fluorophenyl)(1-(pyridin-3-yl)-1H-1,2,3-triazol-4-yl)methyl-d)amino)-4-(((4-methyltetrahydro-2H-pyran-4-yl)methyl)amino)quinoline-3-carbonitrile]
308 | CC[C@@H](Nc1c(C#N)cnc2c(Cl)cc(N[C@@H](c3ccc(F)cc3)c3cn(-c4ccccc4)nn3)cc12)c1ccccc1 [Example 392, 8-chloro-6-(((S)-(4-fluorophenyl)(1-phenyl-1H-1,2,3-triazol-4-yl)methyl)amino)-4-(((R)-1-phenylpropyl)amino)quinoline-3-carbonitrile]
1230 | Cc1ccccc1[C@H](Nc1cc(Cl)c2ncc(C#N)c(Nc3cnc(F)c(F)c3)c2c1)c1c[nH]nn1 [Example 396, (S)-8-chloro-4-((5,6-difluoropyridin-3-yl)amino)-6-((o-tolyl(1H-1,2,3-triazol-4-yl)methyl)amino)quinoline-3-carbonitrile]
734 | N#Cc1cnc2c(Cl)cc(N[C@@H](c3ccccc3)c3c[nH]nn3)cc2c1Nc1cnc(F)c(F)c1 [Example 582, (S)-8-chloro-4-((5,6-difluoropyridin-3-yl)amino)-6-((phenyl(1H-1,2,3-triazol-4-yl)methyl)amino)quinoline-3-carbonitrile]
1530 | CC(C)(C)N1CCC(n2cc([C@@H](Nc3cc(Cl)c4ncc(C#N)c(Nc5csc(Cl)c5)c4c3)c3ccccc3)nn2)CC1 [Example 641, (S)-6-(((1-(1-(tert-butyl)piperidin-4-yl)-1H-1,2,3-triazol-4-yl)(phenyl)methyl)amino)-8-chloro-4-((5-chlorothiophen-3-yl)amino)quinoline-3-carbonitrile]
1090 | CC(C)(C)N1CCC(n2cc([C@@H](Nc3cc(Cl)c4ncc(C#N)c(Nc5cc(F)c(F)c(Cl)c5)c4c3)c3ccc(Cl)cc3)nn2)CC1 [Example 661, (S)-6-(((1-(1-(tert-butyl)piperidin-4-yl)-1H-1,2,3-triazol-4-yl)(4-chlorophenyl)methyl)amino)-8-chloro-4-((3-chloro-4,5-difluorophenyl)amino)quinoline-3-carbonitrile]
1970 | CC(C)(C)N1CCC(n2cc([C@@H](Nc3cc(Cl)c4ncc(C#N)c(Nc5ccc(F)c(Cl)c5Cl)c4c3)c3ccc(Cl)cc3)nn2)CC1 [Example 665, (S)-6-(((1-(1-(tert-butyl)piperidin-4-yl)-1H-1,2,3-triazol-4-yl)(4-chlorophenyl)methyl)amino)-8-chloro-4-((2,3-dichloro-4-fluorophenyl)amino)quinoline-3-carbonitrile]
1240 | CC(C)(C)N1CCC(n2cc([C@@H](Nc3cc(Cl)c4ncc(C#N)c(Nc5cccc(Cl)c5)c4c3)c3ccc(Cl)cc3)nn2)CC1 [Example 776, (S)-6-(((1-(1-(tert-butyl)piperidin-4-yl)-1H-1,2,3-triazol-4-yl)(4-chlorophenyl)methyl)amino)-8-chloro-4-((3-chlorophenyl)amino)quinoline-3-carbonitrile]
311 | N#CCn1cc([C@@H](Nc2cc(Cl)c3ncc(C#N)c(Nc4ccc(F)c(Cl)c4)c3c2)c2ccc(F)cc2)nn1 [Example 815, (S)-8-chloro-4-((3-chloro-4-fluorophenyl)amino)-6-(((1-(cyanomethyl)-1H-1,2,3-triazol-4-yl)(4-fluorophenyl)methyl)amino) quinoline-3-carbonitrile]

same assay, conditions: Homo sapiens, Monocyte, read-out: EC50 TNF

Compound | EC50 [nM]
[2H][C@](Nc1cc(Cl)c2ncc(C#N)c(NC3CN4CCC3CC4)c2c1)(c1ccc(F)cc1)c1cn(C2CC2)nn1 (stereo partly drawn) [Example 317, 8-chloro-6-(((S)-(1-cyclopropyl-1H-1,2,3-triazol-4-yl)(4-fluorophenyl)methyl-d)amino)-4-(quinuclidin-3-ylamino)quinoline-3-carbonitrile] | 8260

same assay, conditions: LPS-stimulated human monocytes, TNFα TR-FRET; read-out: EC50 TNF

EC50 [nM] | Compound
318 | 8-chloro-4-((4-cyna-1- phenylbutyl)amino)-6-(((1- cyclopropyl-1H-1,2,3-triazol-4- yl)(4-fluorophenyl)methyl- d)amino)quinoline-3-carbonitrile [Example 981]
254 | CC(C)(C)CNc1c(C#N)cnc2c(Cl)cc(NC(c3cn(C4(CO)CC4)nn3)c3ccccc3Cl)cc12 (centres unmarked) [Example 964, 8-chloro-6-(((2-chlorophenyl) (1-(1-(hydroxymethyl)cyclopropyl)-1H-1,2,3-triazo1-4-yl)methyl-d)amino)-4-(neopentylamino)quinoline-3-carbonitrile]

same assay, conditions: second value of the cell IC50/EC50; human monocytes, 50 pg/ml LPS, 4 hours

IC50/EC50 [nM]: EC50 (TNFα, monocytes) [nM] | Compound
310 | CCN1CCC(n2cc(CNc3cc(Cl)c4ncc(C#N)c(Nc5ccc(F)c(Cl)c5)c4c3)nn2)CC1 [Comparative Example 1, reference compound]

target: T1, human Cot catalytic domain (30-397 amino acids) (Homo sapiens, UniProt P41279); assay: High Throughput Cot Biochemical Assay (KinEASE TR-FRET); settings: Cot KinEASE TR-FRET (HTRF) biochemical assay, 400 μM ATP; read-out: IC50 HTRF
T1 construct: Purified recombinant human Cot catalytic domain (30-397 amino acids) was purchased from Cama Biosciences; purchased Cama Biosciences (so in the source)
T1 sequence (P41279 30-397): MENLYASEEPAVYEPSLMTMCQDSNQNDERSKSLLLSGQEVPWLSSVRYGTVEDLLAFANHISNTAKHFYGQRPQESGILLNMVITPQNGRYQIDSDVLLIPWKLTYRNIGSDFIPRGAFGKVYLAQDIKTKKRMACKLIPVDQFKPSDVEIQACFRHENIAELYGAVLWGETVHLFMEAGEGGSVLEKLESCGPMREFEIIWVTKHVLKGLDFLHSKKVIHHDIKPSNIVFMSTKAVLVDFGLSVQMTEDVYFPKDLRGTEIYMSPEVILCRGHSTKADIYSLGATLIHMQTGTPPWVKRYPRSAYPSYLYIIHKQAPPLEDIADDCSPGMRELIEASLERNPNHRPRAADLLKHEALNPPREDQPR
Procedure, shortened: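 TR-FRET (KinEASE) read-out: Eu-labelled phospho-specific antibody binds XL665-tagged STK3 peptide (1 μM) phosphorylated by 5 nM human Cot kinase domain (residues 30-397). Reaction at 400 μM ATP, pH 7.0 MOPS buffer with 10 mM MgOAc, 1 mM DTT and 0.1% DMSO.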

IC50 [nM] | Compound
16 | [2H]C(Nc1cc(Cl)c2ncc(C#N)c(NC3[C@H]4CCC[C@@H]34)c2c1)(c1ccc(F)cc1)c1cn(C2CC2)nn1 (stereo in doubt) [Example 117, 4-(((1R,5S)-bicyclo[3.1.0]hexan-6-yl)amino)-8-chloro-6-(((S)-(1-cyclopropyl-1H-1,2,3-triazol-4-yl) (4-fluorophenyl)methyl-d)amino)quinoline-3-carbonitrile]
807 | [2H]C(Nc1cc(Cl)c2ncc(C#N)c(N[C@@H]3CCCC[C@@H]3N)c2c1)(c1ccc(F)cc1)c1cn(C2CC2)nn1 (stereo in doubt) [Example 228, 4-(((1R,2S)-2-aminocyclohexyl)amino)-8-chloro-6-(((S)-(1-cyclopropyl-1H-1,2,3-triazol-4-yl)(4-fluorophenyl)methyl-d)amino)quinoline-3-carbonitrile]
> 10000 | [2H]C(Nc1cc(Cl)c2ncc(C#N)c(N[C@H]3CCCC[C@H]3NC(=O)OC(C)(C)C)c2c1)(c1ccc(F)cc1)c1cn(C2CC2)nn1 (stereo in doubt) [Example 231, tert-butyl ((1R,2S)-2-((8-chloro-3-cyano-6-(((S)-(1-cyclopropyl-1H-1,2,3-triazol-4-yl)(4-fluorophenyl)methyl-d)amino)quinolin-4-yl)amino)cyclohexyl)carbamate]

same assay, conditions: Cot KinEASE TR-FRET, 400 μM ATP; read-out: IC50 HTRF

IC50 [nM] | Compound
22 | 8-chloro-4-((4-cyna-1- phenylbutyl)amino)-6-(((1- cyclopropyl-1H-1,2,3-triazol-4- yl)(4-fluorophenyl)methyl- d)amino)quinoline-3-carbonitrile [Example 981]
4 | CCN1CCC(n2cc(C(Nc3cc(Cl)c4ncc(C#N)c(Nc5ccc(F)c(Cl)c5)c4c3)c3ccccc3)nn2)CC1 (centres unmarked) [Example 922, 8-chloro-4-((3-chloro-4-fluorophenyl)amino)-6-(((1-(1-ethylpiperidin-4-yl)-1H-1,2,3-triazol-4-yl)(phenyl)methyl)amino) quinoline-3-carbonitrile]
